{"source": "PubChem BioAssay (NCI)", "assay_in_all_cases": "NCI anticancer screen, dose series, 48 h", "key": {"[1]": {"system": "786-0 renal"}, "[2]": {"system": "A498 renal"}, "[3]": {"system": "A549 NSCLC"}, "[4]": {"system": "ACHN renal"}, "[5]": {"system": "CAKI-1 renal"}, "[6]": {"system": "CCRF-CEM leukemia"}, "[7]": {"system": "COLO 205 colon"}, "[8]": {"system": "EKVX NSCLC"}, "[9]": {"system": "HCC-2998 colon"}, "[10]": {"system": "HCT-116 colon"}, "[11]": {"system": "HCT-15 colon"}, "[12]": {"system": "HL-60(TB) leukemia"}, "[13]": {"system": "HOP-62 NSCLC"}, "[14]": {"system": "HOP-92 NSCLC"}, "[15]": {"system": "HS 578T breast"}, "[16]": {"system": "HT29 colon"}, "[17]": {"system": "K-562 leukemia"}, "[18]": {"system": "KM12 colon"}, "[19]": {"system": "LOX IMVI melanoma"}, "[20]": {"system": "MCF7 breast"}, "[21]": {"system": "MDA-MB-435"}, "[22]": {"system": "MOLT-4 leukemia"}, "[23]": {"system": "NCI-H226 lung"}, "[24]": {"system": "NCI-H23 lung"}, "[25]": {"system": "NCI-H460 lung"}, "[26]": {"system": "NCI-H522 lung"}, "[27]": {"system": "NCI/ADR-RES ovarian"}, "[28]": {"system": "OVCAR-3 ovarian"}, "[29]": {"system": "OVCAR-4 ovarian"}, "[30]": {"system": "OVCAR-8 ovarian"}, "[31]": {"system": "PC-3 prostate"}, "[32]": {"system": "RPMI-8226 leukemia"}, "[33]": {"system": "RXF 393 renal"}, "[34]": {"system": "SF-268 CNS"}, "[35]": {"system": "SF-295 CNS"}, "[36]": {"system": "SF-539 CNS"}, "[37]": {"system": "SK-MEL-2 melanoma"}, "[38]": {"system": "SK-MEL-28 melanoma"}, "[39]": {"system": "SK-MEL-5 melanoma"}, "[40]": {"system": "SK-OV-3 ovarian"}, "[41]": {"system": "SN12C renal"}, "[42]": {"system": "SNB-19 CNS"}, "[43]": {"system": "SR leukemia"}, "[44]": {"system": "SW-620 colon"}, "[45]": {"system": "T-47D breast"}, "[46]": {"system": "TK-10 renal"}, "[47]": {"system": "U251 CNS"}, "[48]": {"system": "UACC-257 melanoma"}, "[49]": {"system": "UACC-62 melanoma"}}, "note": "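Cultured in 96-well plates, cells were exposed to test compound for 48 hours across five concentrations. GI50 is the concentration that inhibits growth by half. Definition used: TGI = concentration required for complete inhibition of growth.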"}
{"smiles": "COc1ccc(-c2oc3cc(O)c(OC)c(O)c3c(=O)c2OC)cc1O", "values": [{"measurement": "GI50", "setting": "[1]", "result": 578, "unit": "nM"}, {"measurement": "TGI", "setting": "[1]", "result": 7420, "unit": "nM"}, {"measurement": "GI50", "setting": "[2]", "result": 210, "unit": "nM"}, {"measurement": "TGI", "setting": "[2]", "result": 801, "unit": "nM"}, {"measurement": "GI50", "setting": "[3]", "result": 1070, "unit": "nM"}, {"measurement": "TGI", "setting": "[3]", "result": "> 100000", "unit": "nM"}, {"measurement": "GI50", "setting": "[4]", "result": 1520, "unit": "nM"}, {"measurement": "TGI", "setting": "[4]", "result": "> 100000", "unit": "nM"}, {"measurement": "GI50", "setting": "[5]", "result": 2380, "unit": "nM"}, {"measurement": "TGI", "setting": "[5]", "result": 28300, "unit": "nM"}, {"measurement": "GI50", "setting": "[6]", "result": 343, "unit": "nM"}, {"measurement": "TGI", "setting": "[6]", "result": "> 100000", "unit": "nM"}, {"measurement": "GI50", "setting": "[7]", "result": 5850, "unit": "nM"}, {"measurement": "TGI", "setting": "[7]", "result": 28800, "unit": "nM"}, {"measurement": "GI50", "setting": "[8]", "result": 3430, "unit": "nM"}, {"measurement": "TGI", "setting": "[8]", "result": "> 100000", "unit": "nM"}, {"measurement": "GI50", "setting": "[9]", "result": 1220, "unit": "nM"}, {"measurement": "TGI", "setting": "[9]", "result": "> 100000", "unit": "nM"}, {"measurement": "GI50", "setting": "[10]", "result": 76.2, "unit": "nM"}, {"measurement": "TGI", "setting": "[10]", "result": 6560, "unit": "nM"}, {"measurement": "GI50", "setting": "[11]", "result": 92.8, "unit": "nM"}, {"measurement": "TGI", "setting": "[11]", "result": "> 100000", "unit": "nM"}, {"measurement": "GI50", "setting": "[12]", "result": 27.5, "unit": "nM"}, {"measurement": "TGI", "setting": "[12]", "result": 212, "unit": "nM"}, {"measurement": "GI50", "setting": "[13]", "result": 271, "unit": "nM"}, {"measurement": "TGI", "setting": "[13]", "result": "> 100000", "unit": "nM"}, {"measurement": "GI50", "setting": "[14]", "result": 3460, "unit": "nM"}, {"measurement": "TGI", "setting": "[14]", "result": "> 100000", "unit": "nM"}, {"measurement": "GI50", "setting": "[15]", "result": 37, "unit": "nM"}, {"measurement": "TGI", "setting": "[15]", "result": 715, "unit": "nM"}, {"measurement": "GI50", "setting": "[16]", "result": 3500, "unit": "nM"}, {"measurement": "TGI", "setting": "[16]", "result": "> 100000", "unit": "nM"}, {"measurement": "GI50", "setting": "[17]", "result": 43.6, "unit": "nM"}, {"measurement": "TGI", "setting": "[17]", "result": "> 100000", "unit": "nM"}, {"measurement": "GI50", "setting": "[18]", "result": 437, "unit": "nM"}, {"measurement": "TGI", "setting": "[18]", "result": 20900, "unit": "nM"}, {"measurement": "GI50", "setting": "[19]", "result": 76.6, "unit": "nM"}, {"measurement": "TGI", "setting": "[19]", "result": "> 100000", "unit": "nM"}, {"measurement": "GI50", "setting": "[20]", "result": 316, "unit": "nM"}, {"measurement": "TGI", "setting": "[20]", "result": "> 100000", "unit": "nM"}, {"measurement": "GI50", "setting": "[21]", "result": 25, "unit": "nM"}, {"measurement": "TGI", "setting": "[21]", "result": 67.4, "unit": "nM"}, {"measurement": "GI50", "setting": "[22]", "result": 509, "unit": "nM"}, {"measurement": "TGI", "setting": "[22]", "result": "> 100000", "unit": "nM"}, {"measurement": "GI50", "setting": "[23]", "result": 2500, "unit": "nM"}, {"measurement": "TGI", "setting": "[23]", "result": "> 100000", "unit": "nM"}, {"measurement": "GI50", "setting": "[24]", "result": 443, "unit": "nM"}, {"measurement": "TGI", "setting": "[24]", "result": "> 100000", "unit": "nM"}, {"measurement": "GI50", "setting": "[25]", "result": 138, "unit": "nM"}, {"measurement": "TGI", "setting": "[25]", "result": 4340, "unit": "nM"}, {"measurement": "GI50", "setting": "[26]", "result": 58.9, "unit": "nM"}, {"measurement": "TGI", "setting": "[26]", "result": 7870, "unit": "nM"}, {"measurement": "GI50", "setting": "[27]", "result": 45.6, "unit": "nM"}, {"measurement": "TGI", "setting": "[27]", "result": "> 100000", "unit": "nM"}, {"measurement": "GI50", "setting": "[28]", "result": 43.2, "unit": "nM"}, {"measurement": "TGI", "setting": "[28]", "result": 194, "unit": "nM"}, {"measurement": "GI50", "setting": "[29]", "result": 1260, "unit": "nM"}, {"measurement": "TGI", "setting": "[29]", "result": "> 100000", "unit": "nM"}, {"measurement": "GI50", "setting": "[30]", "result": 375, "unit": "nM"}, {"measurement": "TGI", "setting": "[30]", "result": "> 100000", "unit": "nM"}, {"measurement": "GI50", "setting": "[31]", "result": 4440, "unit": "nM"}, {"measurement": "TGI", "setting": "[31]", "result": "> 100000", "unit": "nM"}, {"measurement": "GI50", "setting": "[32]", "result": 417, "unit": "nM"}, {"measurement": "TGI", "setting": "[32]", "result": "> 100000", "unit": "nM"}, {"measurement": "GI50", "setting": "[33]", "result": 171, "unit": "nM"}, {"measurement": "TGI", "setting": "[33]", "result": "> 100000", "unit": "nM"}, {"measurement": "GI50", "setting": "[34]", "result": 75.4, "unit": "nM"}, {"measurement": "TGI", "setting": "[34]", "result": "> 100000", "unit": "nM"}, {"measurement": "GI50", "setting": "[35]", "result": 300, "unit": "nM"}, {"measurement": "TGI", "setting": "[35]", "result": 2040, "unit": "nM"}, {"measurement": "GI50", "setting": "[36]", "result": 44.5, "unit": "nM"}, {"measurement": "TGI", "setting": "[36]", "result": 21900, "unit": "nM"}, {"measurement": "GI50", "setting": "[37]", "result": 536, "unit": "nM"}, {"measurement": "TGI", "setting": "[37]", "result": "> 100000", "unit": "nM"}, {"measurement": "GI50", "setting": "[38]", "result": 77.5, "unit": "nM"}, {"measurement": "TGI", "setting": "[38]", "result": "> 100000", "unit": "nM"}, {"measurement": "GI50", "setting": "[39]", "result": 78.6, "unit": "nM"}, {"measurement": "TGI", "setting": "[39]", "result": 2670, "unit": "nM"}, {"measurement": "GI50", "setting": "[40]", "result": 207, "unit": "nM"}, {"measurement": "TGI", "setting": "[40]", "result": 16400, "unit": "nM"}, {"measurement": "GI50", "setting": "[41]", "result": 212, "unit": "nM"}, {"measurement": "TGI", "setting": "[41]", "result": "> 100000", "unit": "nM"}, {"measurement": "GI50", "setting": "[42]", "result": 189, "unit": "nM"}, {"measurement": "TGI", "setting": "[42]", "result": "> 100000", "unit": "nM"}, {"measurement": "GI50", "setting": "[43]", "result": 39, "unit": "nM"}, {"measurement": "TGI", "setting": "[43]", "result": "> 100000", "unit": "nM"}, {"measurement": "GI50", "setting": "[44]", "result": 48.5, "unit": "nM"}, {"measurement": "TGI", "setting": "[44]", "result": "> 100000", "unit": "nM"}, {"measurement": "GI50", "setting": "[45]", "result": 819, "unit": "nM"}, {"measurement": "TGI", "setting": "[45]", "result": "> 100000", "unit": "nM"}, {"measurement": "GI50", "setting": "[46]", "result": 21100, "unit": "nM"}, {"measurement": "TGI", "setting": "[46]", "result": "> 100000", "unit": "nM"}, {"measurement": "GI50", "setting": "[47]", "result": 70.8, "unit": "nM"}, {"measurement": "TGI", "setting": "[47]", "result": "> 100000", "unit": "nM"}, {"measurement": "GI50", "setting": "[48]", "result": "> 100000", "unit": "nM"}, {"measurement": "TGI", "setting": "[48]", "result": "> 100000", "unit": "nM"}, {"measurement": "GI50", "setting": "[49]", "result": 311, "unit": "nM"}, {"measurement": "TGI", "setting": "[49]", "result": "> 100000", "unit": "nM"}]}
